Assay results reported in the OligoGym collection.
Values joined by “and” are separate entries in the source; they are usually repeats but may differ in a detail not shown here. Equal values may be shown once. After the bases stand the sugars from the 5' end (letter, count) and the backbone: PS all phosphorothioate, else s phosphorothioate and o phosphodiester by linkage. Methylation of C is not given here. e = 2'-O-(2-methoxyethyl) (MOE); k = constrained ethyl (cEt); d = 2'-deoxy (DNA)

Legend:
IRF5 = conditions: ASO
DGAT2 = conditions: ASO

Sequence	target mRNA inhibition (IRF5; KARPAS-229, 4 µM)	target mRNA inhibition (DGAT2; HepG2, 0.12 µM)	also measured
CAGGTTCTTGGACTCT (sugars kekdddddddddeekk, PS)	48% and 62%	–	target mRNA inhibition (IRF5; KARPAS-229, 0.44444 µM): 34%; target mRNA inhibition (IRF5; KARPAS-229, 1.33333 µM): 48%; target mRNA inhibition (IRF5; KARPAS-229, 12 µM): 74%
CAGGTTCTTGGACTCT (sugars kkdddddddddkekek, PS)	0%	–	–
CAGGTTCTTGGACTCT (sugars kkkddddddddkdkdk, PS)	0%	–	–
CATCAGCTTTCTTGTC (sugars k3 d10 k3, PS)	28%	–	–
CATCTCCACATCAGTC (sugars kddddddddddkekek, PS)	25%	–	–
CATTCCATATACACAC (sugars k2 d8 e4 k2, PS)	21%	–	–
CATTCCATATACACAC (sugars k3 d9 k3 e1, PS)	39%	–	–
CATTCCATATACACAC (sugars kkdddddddddkekek, PS)	54%	–	–
CATTCCATATACACAC (sugars kkkdddddddddkeke, PS)	28%	–	–
CATTCCATATACACAC (sugars kkkddddddddkdkdk, PS)	40%	–	–
CATTCCATATACACAC (sugars kkkddddddddkekek, PS)	32%	–	–
CATTCTATGCCTTTTA (sugars kkddddddddkekekk, PS)	56%	–	–
CCAATGCAACATCCAT (sugars kkddddddddddkeke, PS)	0%	–	–
CCAATGCAACATCCAT (sugars kkdddddddddkdkdk, PS)	0%	–	–
CCAATGCAACATCCAT (sugars kkdddddddddkekek, PS)	0%	–	–
CCAATTTTGCATTCCA (sugars kkddddddddddkeke, PS)	75% and 57%	–	target mRNA inhibition (IRF5; KARPAS-229, 0.44444 µM): 47%; target mRNA inhibition (IRF5; KARPAS-229, 1.33333 µM): 66%; target mRNA inhibition (IRF5; KARPAS-229, 12 µM): 82%
CCAATTTTGCATTCCA (sugars kkdddddddddkekek, PS)	11%	–	–
CCACTGTGTACCCCAT (sugars k3 d9 k3 e1, PS)	57%	–	–
CCACTGTGTACCCCAT (sugars kkddddddddddkeke, PS)	19%	–	–
TGGATAGTCGATTTACCAGA (sugars e5 d10 e5, PS)	–	–	target mRNA inhibition (DGAT2; HepG2, 2.5 µM): 62%; target mRNA inhibition (DGAT2; HepG2, 10 µM): 90%
TGGCACTAAGCTAGGCACAC (sugars e5 d10 e5, PS)	–	62%	–

Sequence	target mRNA inhibition (IRF5; KARPAS-229, 4 µM)	target mRNA inhibition (DGAT2; HepG2, 0.12 µM)	also measured
TGGTGGTTGCAATGTTGCCA (sugars e5 d10 e5, PS)	–	–	target mRNA inhibition (DGAT2; HepG2, 2.5 µM): 88% and 80%; target mRNA inhibition (DGAT2; HepG2, 10 µM): 92% and 91%
TGGTTGCAATGTTGCCATCA (sugars e5 d10 e5, PS)	–	–	target mRNA inhibition (DGAT2; HepG2, 2.5 µM): 94% and 78%; target mRNA inhibition (DGAT2; HepG2, 10 µM): 94% and 93%
TGTAATGGTTTAGCAAAATT (sugars e5 d10 e5, PS)	–	26%	–
TGTCCTTATCAAAATCCCTC (sugars e5 d10 e5, PS)	–	38%	–
TGTGATGACTTCCCAGGGTC (sugars e5 d10 e5, PS)	–	–	target mRNA inhibition (DGAT2; HepG2, 2.5 µM): 85%; target mRNA inhibition (DGAT2; HepG2, 10 µM): 76%
TGTGTTCCAGTCAAACACCA (sugars e5 d10 e5, PS)	–	23%	–
TTAGCTCTCAGTGAAGCTGG (sugars e5 d10 e5, PS)	–	–	target mRNA inhibition (DGAT2; HepG2, 2.5 µM): 93%; target mRNA inhibition (DGAT2; HepG2, 10 µM): 82%
TTAGGCATGCTTCCTCCCAC (sugars e5 d10 e5, PS)	–	–	target mRNA inhibition (DGAT2; HepG2, 2.5 µM): 78%; target mRNA inhibition (DGAT2; HepG2, 10 µM): 68%
TTCCATTTTTTACCCAACCT (sugars e5 d10 e5, PS)	–	–	target mRNA inhibition (DGAT2; HepG2, 2.5 µM): 57%; target mRNA inhibition (DGAT2; HepG2, 10 µM): 93%
TTCCTTTGAAATCCAATGCA (sugars e5 d10 e5, PS)	–	–	target mRNA inhibition (DGAT2; HepG2, 2.5 µM): 63%; target mRNA inhibition (DGAT2; HepG2, 10 µM): 86%
TTCTTCTGGACCCATCGGCC (sugars e5 d10 e5, PS)	–	44%	–
TTGCCACTCCCATTCTTTGA (sugars e2 d13 e5, PS)	–	57%	–
TTGCCACTCCCATTCTTTGA (sugars e3 d14 e3, PS)	–	59%	–
TTGCGGTTCCGCAGGGTGAC (sugars e5 d10 e5, PS)	–	70%	–
TTGTCCTAGTGCCCCAGGGA (sugars e5 d10 e5, PS)	–	–	target mRNA inhibition (DGAT2; HepG2, 2.5 µM): 75%; target mRNA inhibition (DGAT2; HepG2, 10 µM): 85%
TTGTGTGTCTTCACCAGCTG (sugars e3 d14 e3, PS)	–	60%	–
TTGTGTGTCTTCACCAGCTG (sugars e5 d10 e5, PS)	–	63% and 73%	–
TTTCCCATGGGAGAAGATAA (sugars e5 d10 e5, PS)	–	55%	–
TTTCGGACCCACTGTGACCT (sugars e5 d10 e5, PS)	–	65%	–
TTTGCTCAGTTCTTCCAACC (sugars e5 d10 e5, PS)	–	–	target mRNA inhibition (DGAT2; HepG2, 2.5 µM): 72% and 70%; target mRNA inhibition (DGAT2; HepG2, 10 µM): 93% and 92%
TTTGGAACTAATCTGCTGCT (sugars e5 d10 e5, PS)	–	50%	–
